The target of assay [1] is Tyrosine-protein kinase ABL1 (Homo sapiens) (UniProt P00519). As to the kind of experiment: Inhibition of Abl at 10 uM by colorimetric analysis.
Assay [2] deals with Ribosomal protein S6 kinase beta-1 (Homo sapiens) (UniProt P23443). Put plainly: Inhibition of p70S6K at 10 uM by colorimetric analysis.
The target in assay [3] is T1, Tyrosine-protein kinase JAK3 (Homo sapiens) (UniProt P52333).
T1 sequence (whole entry): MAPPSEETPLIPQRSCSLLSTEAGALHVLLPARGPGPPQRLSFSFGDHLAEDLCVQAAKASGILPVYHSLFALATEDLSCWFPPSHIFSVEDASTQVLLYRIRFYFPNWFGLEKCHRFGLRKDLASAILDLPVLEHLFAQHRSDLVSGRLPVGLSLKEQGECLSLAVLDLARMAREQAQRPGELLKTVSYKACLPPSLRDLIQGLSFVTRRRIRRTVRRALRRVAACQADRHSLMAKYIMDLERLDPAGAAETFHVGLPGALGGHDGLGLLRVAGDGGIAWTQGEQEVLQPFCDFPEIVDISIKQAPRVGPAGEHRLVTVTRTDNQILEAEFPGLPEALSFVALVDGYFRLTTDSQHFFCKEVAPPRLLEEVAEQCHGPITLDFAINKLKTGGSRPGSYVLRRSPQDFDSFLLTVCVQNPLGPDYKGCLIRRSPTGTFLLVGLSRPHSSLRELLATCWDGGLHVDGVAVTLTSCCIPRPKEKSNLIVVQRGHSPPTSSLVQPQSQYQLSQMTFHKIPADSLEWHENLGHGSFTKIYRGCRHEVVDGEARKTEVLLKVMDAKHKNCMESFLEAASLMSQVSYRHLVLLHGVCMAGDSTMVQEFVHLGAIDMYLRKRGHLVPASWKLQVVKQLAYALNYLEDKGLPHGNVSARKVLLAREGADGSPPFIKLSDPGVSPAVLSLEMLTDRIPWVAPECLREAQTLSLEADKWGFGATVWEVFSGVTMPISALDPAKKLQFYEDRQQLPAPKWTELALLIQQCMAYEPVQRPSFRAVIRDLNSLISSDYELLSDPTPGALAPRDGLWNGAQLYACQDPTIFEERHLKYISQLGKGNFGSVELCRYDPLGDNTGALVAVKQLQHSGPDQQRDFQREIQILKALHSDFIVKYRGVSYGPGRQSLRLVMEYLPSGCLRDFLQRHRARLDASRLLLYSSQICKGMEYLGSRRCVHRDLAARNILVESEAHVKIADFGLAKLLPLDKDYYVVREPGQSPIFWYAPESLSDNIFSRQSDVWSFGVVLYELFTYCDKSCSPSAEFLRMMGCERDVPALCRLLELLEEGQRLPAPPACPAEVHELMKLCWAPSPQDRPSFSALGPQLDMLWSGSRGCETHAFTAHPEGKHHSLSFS
As to the kind of experiment: Inhibition of JAK3 at 10 uM by colorimetric analysis.

Assay [4] addresses Cyclin-dependent kinase 2/cyclin A (Homo sapiens) (UniProt P24941+P20248+P78396). Put plainly: Inhibition of CDK2/CycA2 at 10 uM by colorimetric analysis. In kind it is protein-complex assay.
Assay [5] deals with 3-phosphoinositide-dependent protein kinase 1 (Homo sapiens) (UniProt O15530). Put plainly: Inhibition of PDK1 at 10 uM by colorimetric analysis.
The target of assay [6] is T2, Inhibitor of nuclear factor kappa-B kinase subunit beta (Homo sapiens) (UniProt O14920).
T2 sequence (whole entry): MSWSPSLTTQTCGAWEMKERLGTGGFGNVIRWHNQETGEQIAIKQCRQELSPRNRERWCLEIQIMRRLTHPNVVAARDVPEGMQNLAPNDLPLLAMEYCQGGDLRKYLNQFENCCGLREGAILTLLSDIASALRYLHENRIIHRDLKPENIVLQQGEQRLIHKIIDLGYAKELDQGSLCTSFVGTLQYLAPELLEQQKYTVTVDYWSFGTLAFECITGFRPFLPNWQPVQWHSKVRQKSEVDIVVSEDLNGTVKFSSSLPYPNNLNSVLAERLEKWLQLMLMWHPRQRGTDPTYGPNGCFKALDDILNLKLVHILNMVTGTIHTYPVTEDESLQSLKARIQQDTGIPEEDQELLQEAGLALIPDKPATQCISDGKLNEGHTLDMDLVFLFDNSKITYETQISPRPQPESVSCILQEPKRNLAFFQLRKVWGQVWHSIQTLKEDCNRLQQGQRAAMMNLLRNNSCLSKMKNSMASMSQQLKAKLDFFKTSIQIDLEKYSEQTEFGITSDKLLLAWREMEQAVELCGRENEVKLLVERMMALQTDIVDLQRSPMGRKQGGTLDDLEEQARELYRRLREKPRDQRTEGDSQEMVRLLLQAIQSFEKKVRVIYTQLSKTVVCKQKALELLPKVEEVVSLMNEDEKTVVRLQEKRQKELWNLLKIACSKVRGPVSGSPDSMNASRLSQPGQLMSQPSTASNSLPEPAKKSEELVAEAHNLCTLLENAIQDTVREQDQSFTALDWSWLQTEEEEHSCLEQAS
As to the kind of experiment: Inhibition of IKK-beta at 10 uM by colorimetric analysis.

The target of assay [7] is T3, Aurora kinase A (Homo sapiens) (UniProt O14965).
T3 sequence (whole entry): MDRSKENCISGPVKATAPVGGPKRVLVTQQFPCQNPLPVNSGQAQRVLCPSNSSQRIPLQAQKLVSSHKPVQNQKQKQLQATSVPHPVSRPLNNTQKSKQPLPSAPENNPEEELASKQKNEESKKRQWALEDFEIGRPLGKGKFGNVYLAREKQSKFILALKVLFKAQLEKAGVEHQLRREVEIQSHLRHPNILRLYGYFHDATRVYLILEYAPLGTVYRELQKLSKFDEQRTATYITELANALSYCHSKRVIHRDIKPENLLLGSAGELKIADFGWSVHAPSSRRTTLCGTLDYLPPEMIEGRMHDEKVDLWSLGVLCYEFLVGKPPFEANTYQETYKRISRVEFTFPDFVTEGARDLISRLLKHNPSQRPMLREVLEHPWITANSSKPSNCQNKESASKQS
Put plainly: Inhibition of Aurora A at 10 uM by colorimetric analysis.

Activity calls are given as the source filed them. The calls are words filed in the database; no cut-off is given here.

Sequence of Tyrosine-protein kinase ABL1 (Homo sapiens) (P00519 whole entry): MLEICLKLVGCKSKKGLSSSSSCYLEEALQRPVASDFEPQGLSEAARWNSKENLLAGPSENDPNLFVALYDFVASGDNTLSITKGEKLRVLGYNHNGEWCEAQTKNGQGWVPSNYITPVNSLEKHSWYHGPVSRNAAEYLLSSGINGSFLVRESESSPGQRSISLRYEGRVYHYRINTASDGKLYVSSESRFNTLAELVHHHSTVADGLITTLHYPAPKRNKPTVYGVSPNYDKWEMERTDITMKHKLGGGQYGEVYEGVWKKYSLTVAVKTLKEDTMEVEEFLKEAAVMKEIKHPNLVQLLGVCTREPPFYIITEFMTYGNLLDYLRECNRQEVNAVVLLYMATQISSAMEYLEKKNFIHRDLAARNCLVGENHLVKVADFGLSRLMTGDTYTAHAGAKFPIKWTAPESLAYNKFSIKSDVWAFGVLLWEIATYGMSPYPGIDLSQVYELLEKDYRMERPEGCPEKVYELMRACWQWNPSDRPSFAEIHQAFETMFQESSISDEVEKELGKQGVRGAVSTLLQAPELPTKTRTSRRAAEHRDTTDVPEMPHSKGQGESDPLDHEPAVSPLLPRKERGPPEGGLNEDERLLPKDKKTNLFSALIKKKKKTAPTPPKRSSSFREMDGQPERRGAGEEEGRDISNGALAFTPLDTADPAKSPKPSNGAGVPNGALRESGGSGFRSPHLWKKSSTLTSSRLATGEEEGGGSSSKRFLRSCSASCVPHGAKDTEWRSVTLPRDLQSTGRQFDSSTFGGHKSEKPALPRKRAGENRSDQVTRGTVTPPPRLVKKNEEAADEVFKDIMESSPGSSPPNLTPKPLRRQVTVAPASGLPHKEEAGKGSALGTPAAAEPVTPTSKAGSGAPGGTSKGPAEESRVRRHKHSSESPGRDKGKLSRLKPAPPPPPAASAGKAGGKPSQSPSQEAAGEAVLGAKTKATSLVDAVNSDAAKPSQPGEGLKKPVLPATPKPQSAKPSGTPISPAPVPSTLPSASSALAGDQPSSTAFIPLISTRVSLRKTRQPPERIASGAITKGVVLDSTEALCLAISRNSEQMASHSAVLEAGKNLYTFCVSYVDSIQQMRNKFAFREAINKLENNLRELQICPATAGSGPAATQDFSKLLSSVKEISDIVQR
Sequence of 3-phosphoinositide-dependent protein kinase 1 (Homo sapiens) (O15530 whole entry, looked up): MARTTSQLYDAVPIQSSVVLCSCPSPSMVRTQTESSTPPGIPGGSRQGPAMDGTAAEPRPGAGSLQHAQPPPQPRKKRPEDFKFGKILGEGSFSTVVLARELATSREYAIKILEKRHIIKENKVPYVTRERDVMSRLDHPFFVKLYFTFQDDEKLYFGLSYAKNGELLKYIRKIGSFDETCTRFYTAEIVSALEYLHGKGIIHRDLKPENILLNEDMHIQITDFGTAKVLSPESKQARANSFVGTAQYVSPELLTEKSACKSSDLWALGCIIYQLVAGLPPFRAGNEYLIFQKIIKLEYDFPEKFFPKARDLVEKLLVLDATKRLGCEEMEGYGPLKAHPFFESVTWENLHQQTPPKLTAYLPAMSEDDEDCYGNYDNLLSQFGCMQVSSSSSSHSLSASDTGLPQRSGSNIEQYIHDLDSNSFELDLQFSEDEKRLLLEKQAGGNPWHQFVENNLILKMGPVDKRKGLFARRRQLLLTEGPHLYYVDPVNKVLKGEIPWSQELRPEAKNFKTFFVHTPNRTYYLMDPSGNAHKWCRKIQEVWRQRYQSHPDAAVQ
Sequence of Ribosomal protein S6 kinase beta-1 (Homo sapiens) (P23443 whole entry, looked up): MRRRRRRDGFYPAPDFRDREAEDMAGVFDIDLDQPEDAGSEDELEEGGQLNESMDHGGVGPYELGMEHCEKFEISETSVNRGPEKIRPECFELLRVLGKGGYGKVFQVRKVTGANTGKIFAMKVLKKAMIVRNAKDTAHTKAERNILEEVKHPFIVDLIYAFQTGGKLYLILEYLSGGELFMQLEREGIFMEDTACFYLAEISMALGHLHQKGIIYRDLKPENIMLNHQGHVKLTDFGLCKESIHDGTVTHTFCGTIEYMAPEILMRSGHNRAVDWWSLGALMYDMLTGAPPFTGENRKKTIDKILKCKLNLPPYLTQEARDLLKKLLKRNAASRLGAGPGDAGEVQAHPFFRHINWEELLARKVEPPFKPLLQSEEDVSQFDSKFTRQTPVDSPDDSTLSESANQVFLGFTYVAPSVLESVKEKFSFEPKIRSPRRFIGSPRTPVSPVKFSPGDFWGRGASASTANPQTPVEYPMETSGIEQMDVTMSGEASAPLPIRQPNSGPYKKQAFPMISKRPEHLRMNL

Take `Clc1ccc(-n2cc(-c3ccncc3)nn2)cc1`: the inhibition entry in assay [1] and in assay [3] was “inactive” each time. The inhibition entry in assay [2], in assay [4], in assay [5], in assay [6] and in assay [7] was “Active” each time.
As for `Clc1cccc(-n2nncc2-c2ccncc2)c1`, the inhibition result in assay [1] and in assay [3] was “inactive” in each case. Further, the inhibition entry in assay [2], in assay [4], in assay [5], in assay [6] and in assay [7] was “Active” throughout.
On to `Clc1ccc(-n2nncc2-c2ccncc2)cc1`, for which the inhibition result in assay [1] and in assay [3] was “inactive” in each case. In addition, the inhibition result in assay [2], in assay [4], in assay [5], in assay [6] and in assay [7] was “Active” each time.
For `Clc1cccc(-n2cc(-c3ccncc3)nn2)c1`, the inhibition entry in assay [1] and in assay [3] was “inactive” in each case. Further, the inhibition result in assay [2], in assay [4], in assay [5], in assay [6] and in assay [7] was “Active” throughout.

(Values after ChEMBL document CHEMBL1938312, “Design and combinatorial synthesis of a novel kinase-focused library using click chemistry-based fragment assembly” (Bioorg Med Chem Lett, 2012).)
